From article PMC5559473, “Screening of TB Actives for Activity against Nontuberculous Mycobacteria Delivers High Hit Rates” (Frontiers in Microbiology, 2017)
≈ marks a conversion by molar mass, not a printed value. Like-named read-outs stand apart in the source and are kept apart here.

Tests used:
[1] = rat, cited from earlier work
M. abscessus Bamboo [2] = test: Dose-response growth inhibition (broth microdilution); format: cell-based, Mycobacterium abscessus; settings: Mycobacteroides abscessus; for MIC50: read-out: MIC50
M. tuberculosis H37Rv = test: as above; format: cell-based; settings: Mycobacterium tuberculosis, 168 h, M. tuberculosis H37Rv, 7 days; for MIC50: concentration that inhibits 50% of growth, read-out: MIC50; for MIC90: concentration that inhibits 90% of growth, read-out: MIC90
M. avium 11 [3] = test: as above; format: cell-based, Mycobacterium avium; settings: for MIC50: read-out: MIC50
M. avium 11 [4] = test: Bactericidal assay (CFU, fold kill); format: cell-based, Mycobacterium avium; settings: for Fold kill at MIC90: 10^7 CFU/mL exposed to MIC90 for 4 days, CFU vs starting inoculum
M. abscessus Bamboo [5] = test: Bactericidal assay (CFU, fold kill); format: cell-based, Mycobacterium abscessus; settings: for Fold kill at MIC90: 10^7 CFU/mL exposed to MIC90 for 3 days, CFU vs starting inoculum
M. tuberculosis = test system: M. tuberculosis; parameters: method as in http://www.pathogenbox.org/; settings: as reported by MMV, ref http://www.pathogenbox.org/; cited from earlier work
[6] = 72 h, M. abscessus Bamboo, 3 days
[7] = 72 h, M. abscessus Bamboo, 3 days, read-out: MIC90
[8] = Mycobacterium avium, 96 h, M. avium 11, 4 days
[9] = Mycobacterium avium, 96 h, M. avium 11, 4 days, read-out: MIC90
[10] = IV 1 mg/kg, mean n = 2, ref http://www.pathogenbox.org/

Structure (SMILES) | AUCinf ([1]; in vivo, iv, 1 mg/kg) | AUClast ([1]; in vivo, iv, 1 mg/kg) | C0 ([1]; in vivo, iv, 1 mg/kg) | Cl ([1]; in vivo, iv, 1 mg/kg) | AUCinf ([1]; in vivo, po, 5 mg/kg) | AUClast ([1]; in vivo, po, 5 mg/kg) | tmax ([1]; in vivo, po, 5 mg/kg) | %F ([1]; in vivo) | MIC50 (M. abscessus Bamboo [2]; [6]) | MIC90 (M. abscessus Bamboo [2]; [7]) | MIC50 (M. tuberculosis H37Rv) | MIC90 (M. tuberculosis H37Rv) | MIC50 (M. avium 11 [3]; [8]) | MIC90 (M. avium 11 [3]; [9]) | Fold kill at MIC90 (M. avium 11 [4]) | Fold kill at MIC90 (M. abscessus Bamboo [5]) | Reported MIC (M. tuberculosis) | also measured
COc1ccc(OC)c(NCc2ccc3nc(N)nc(N)c3c2Cl)c1 [MMV675968] | 900 ng·h/mL | 897 ng·h/mL | 1080 ng/mL | 18.7 mL/min/kg | 532 ng·h/mL | 504 ng·h/mL | 60 min | 11% | 10.5 µM (≈ 3.78 µg/mL) | 35 µM (≈ 12.6 µg/mL) | < 0.2 µM | 4 µM (≈ 1.44 µg/mL) | 0.2 µM (≈ 0.072 µg/mL) | 3 µM (≈ 1.08 µg/mL) | NK (NK, “no kill,” i.e., CFU reduction < 10-fold at MIC90) | NK (NK, “no kill,” i.e., CFU reduction < 10-fold at MIC90) |  | 
Cc1cc(C)c2cc(C(=O)NC3CCCCCCC3)[nH]c2c1 [MMV687146] | 935 ng·h/mL | 798 ng·h/mL | 2270 ng/mL | 18.2 mL/min/kg | 483 ng·h/mL | 456 ng·h/mL | 45 min | 11% | 0.8 µM (≈ 0.239 µg/mL) | 2 µM (≈ 0.597 µg/mL) | < 0.2 µM | < 0.2 µM | 3 µM (≈ 0.895 µg/mL) | 9 µM (≈ 2.69 µg/mL) | NK (NK, “no kill,” i.e., CFU reduction < 10-fold at MIC90) | 100 fold | <0.024 µM | 
CCCCOC(=O)Nc1cc2nc(C3CCCCC3)[nH]c2cc1N1CCCC1 [MMV687730] |  |  |  |  |  |  |  |  | 4 µM (≈ 1.54 µg/mL) | 8.5 µM (≈ 3.27 µg/mL) | < 0.2 µM | < 0.2 µM | 5 µM (≈ 1.92 µg/mL) | 22 µM (≈ 8.46 µg/mL) | NK (NK, “no kill,” i.e., CFU reduction < 10-fold at MIC90) | 10 fold | 0.05 µM | AUCinf [1, 10]: 125 ng·h/mL; AUClast [1, 10]: 108 ng·h/mL; C0 [1, 10]: 444 ng/mL; Cl [1, 10]: 166 mL/min/kg; Vss [1, 10]: 15.9 L/kg; t1/2 [1, 10]: 200 min; Cmax ([1]; PO 5 mg/kg, mean n = 2, BLQ = < 1 ng/mL, ref http://www.pathogenbox.org/): NC (BLQ at all time points)
CN1CCN(CCCOc2ncc(Nc3ncc(-c4ccc(C(F)(F)F)c(F)c4)nc3C(N)=O)cn2)CC1 [MMV687812] | 801 ng·h/mL | 381 ng·h/mL | 265 ng/mL | 20.8 mL/min/kg | 2450 ng·h/mL | 962 ng·h/mL | 420 min | 50% | 6 µM (≈ 3.21 µg/mL) | > 50 µM | < 0.2 µM | 2.2 µM (≈ 1.18 µg/mL) | 25 µM (≈ 13.4 µg/mL) | > 50 µM | NK (NK, “no kill,” i.e., CFU reduction < 10-fold at MIC90) |  | 1.2 µM | MIC90 (M. abscessus Bamboo [2]; read-out: Concentration at which 80% growth inhibition was achieved (printed in MIC90 column)): 12 µM (≈ 6.41 µg/mL); Fold kill (Fold kill at MIC90) (M. abscessus Bamboo [5]; at 12 μM (80% growth inhibition), MIC90 not reached): NK^∧ (NK, “no kill,” i.e., CFU reduction < 10-fold at MIC90)
CC(=O)NC[C@H]1CN(c2ccc(-c3ccc(CNCc4cnn[nH]4)cc3)c(F)c2)C(=O)O1 [MMV688327, radezolid, reference compound] |  |  |  |  |  |  |  |  | 3.8 µM (≈ 1.67 µg/mL) | 13 µM (≈ 5.7 µg/mL) | 0.5 µM (≈ 0.219 µg/mL) | 2 µM (≈ 0.877 µg/mL) | 4 µM (≈ 1.75 µg/mL) | 35 µM (≈ 15.3 µg/mL) | NK (NK, “no kill,” i.e., CFU reduction < 10-fold at MIC90) | NK (NK, “no kill,” i.e., CFU reduction < 10-fold at MIC90) | 0.3 µM | 
CC(=O)NCC1CN(c2ccc(-c3ccc(CO)cc3)c(F)c2)C(=O)O1 (centres unmarked) [MMV688508] | 156 ng·h/mL | 156 ng·h/mL | 1310 ng/mL | 280 mL/min/kg |  | 1.45 ng·h/mL | 15 min | <1% | 2.2 µM (≈ 0.788 µg/mL) | 12 µM (≈ 4.3 µg/mL) | < 0.2 µM | 0.3 µM (≈ 0.108 µg/mL) | 0.6 µM (≈ 0.215 µg/mL) | 8 µM (≈ 2.87 µg/mL) | NK (NK, “no kill,” i.e., CFU reduction < 10-fold at MIC90) | NK (NK, “no kill,” i.e., CFU reduction < 10-fold at MIC90) | 0.4 µM | 
CC(=O)NC[C@H]1CN(c2ccc(N3CCSCC3)c(F)c2)C(=O)O1 [MMV688756, sutezolid, reference compound] |  |  |  |  |  |  |  |  | 4.2 µM (≈ 1.48 µg/mL) | 25 µM (≈ 8.84 µg/mL) | < 0.2 µM | 1.2 µM (≈ 0.424 µg/mL) | 0.4 µM (≈ 0.141 µg/mL) | 4 µM (≈ 1.41 µg/mL) | NK (NK, “no kill,” i.e., CFU reduction < 10-fold at MIC90) | NK (NK, “no kill,” i.e., CFU reduction < 10-fold at MIC90) | 1.2 µM | 
COc1ccc2nccc(NC(=O)C3CCN(CCc4ccc(Cl)cc4)CC3)c2n1 [MMV688844] | 167 ng·h/mL | 164 ng·h/mL | 116 ng/mL | 102 mL/min/kg |  |  |  |  | 4.5 µM (≈ 1.91 µg/mL) | 11 µM (≈ 4.67 µg/mL) | 0.2 µM (≈ 0.085 µg/mL) | 2.8 µM (≈ 1.19 µg/mL) | 2 µM (≈ 0.85 µg/mL) | > 50 µM |  | 100 fold | 0.4 µM | MIC90 (M. avium 11 [3]; Mycobacterium avium, 11, read-out: Concentration at which 80% growth inhibition was achieved (printed in MIC90 column)): 6 µM (≈ 2.55 µg/mL); Fold kill (Fold kill at MIC90) (M. avium 11 [4]; at 6 μM (80% growth inhibition), MIC90 not reached): NK^# (NK, “no kill,” i.e., CFU reduction < 10-fold at MIC90)
O=C(N[C@H](Cc1ccccc1)C(=O)Nc1ccccc1N1CCOCC1)c1cccs1 [MMV688845] | 174 ng·h/mL | 171 ng·h/mL | 716 ng/mL | 96.3 mL/min/kg |  | 3.95 ng·h/mL | 22.5 min | <1% | 1.5 µM (≈ 0.653 µg/mL) | 7 µM (≈ 3.05 µg/mL) | < 0.2 µM | 1.7 µM (≈ 0.74 µg/mL) | 0.6 µM (≈ 0.261 µg/mL) | 3 µM (≈ 1.31 µg/mL) | NK (NK, “no kill,” i.e., CFU reduction < 10-fold at MIC90) | 10 fold | 1.2 µM | 
